Results on 25 compounds are retold here after PubChem BioAssay (NCI).

Among the test systems are 786-0 renal; A498 renal; MDA-MB-435; OVCAR-8 ovarian; SR leukemia; UACC-257 melanoma; MDA-MB-231 breast; HCC-2998 colon; DMS 114 small cell lung; KM20L2 colon; LXFL 529 NSCLC; M19-MEL melanoma; SNB-78 CNS.
Common to all, as to experiment: DTP human tumour cell line panel, 48 h

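How tested: cells in 96-well plates exposed to compound for 48 hours at five concentrations. The concentration for 50% growth inhibition is given as GI50. TGI marks complete inhibition of growth.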 Where a SMILES comes first, the peptide text is derived from it. The star is where a group is joined. Palmitoyl = CCCCCCCCCCCCCCCC(=O)*

Regarding `O=c1c2cc(S(=O)(=O)O)ccc2nc(COc2ccc(Oc3ccc(Cl)cc3Cl)cc2)n1-c1ccc(Oc2ccc(Cl)cc2)cc1Cl`, the TGI (commonly the concentration giving total growth inhibition) with 786-0 renal is 40.7 µM; in the assay with A498 renal, 57 µM; with MDA-MB-435, 39.6 µM; in the assay on OVCAR-8 ovarian it was 44.3 µM; in the assay with SR leukemia, 46.5 µM; in the assay with UACC-257 melanoma it was 57.4 µM.

In the case of `COC(=O)C1=C(OC(=O)/C(=C/c2ccc(Cl)cc2)c2ccc(Cl)cc2)C(C(=O)OC)[C@]2(O)[C@@H](C(=O)OC)[C@H]1C[C@@H](c1ccccc1)[C@@H]2C(=O)OC` (stereo partly specified), the TGI in the assay on MDA-MB-231 breast, in the assay on MDA-MB-435, in the assay with OVCAR-8 ovarian and in the assay with UACC-257 melanoma was over 100 µM throughout.

As to `Cc1c(-c2ccccc2)[nH]c2cc(Cl)ccc2c1=O`, the TGI in the assay on A498 renal, in the assay with HCC-2998 colon, in the assay with MDA-MB-231 breast, in the assay on MDA-MB-435, in the assay with SR leukemia and in the assay on UACC-257 melanoma was over 100 µM each time.

For the compound `C=C(C)C1Cc2c(c3ccccc3n(C)c2=O)O1` (stereo unspecified), the total growth inhibition concentration (TGI) in the assay on A498 renal, with DMS 114 small cell lung, with KM20L2 colon, in the assay on LXFL 529 NSCLC, in the assay on M19-MEL melanoma and with OVCAR-8 ovarian was over 100 µM throughout. Also, the total growth inhibition concentration (TGI) in the assay on SNB-78 CNS is over 100 µM.

In the case of `CCOC(=O)c1c(C)n(-c2ccc(Cl)cc2)c2c1cc(O)c1[nH]c3c(c12)CCCC3`, the concentration for total growth inhibition (TGI) in the assay with 786-0 renal, in the assay with A498 renal, in the assay on HCC-2998 colon, in the assay with MDA-MB-231 breast, in the assay on MDA-MB-435 and in the assay on OVCAR-8 ovarian was over 100 µM throughout. The TGI with SR leukemia was 43.3 µM; in the assay on UACC-257 melanoma it was over 100 µM.

As for `CC1=C(O)C2=C(C(=O)C1=O)[C@@H](C)CC[C@@H]2[C@@H](C)C/C=C/C(C)(C)O`, the total growth inhibition concentration (TGI) in the assay with 786-0 renal is over 100 µM; with A498 renal, over 100 µM; in the assay with MDA-MB-231 breast it was over 100 µM; with MDA-MB-435, over 100 µM; in the assay with OVCAR-8 ovarian it was over 100 µM; with SR leukemia it was 80.4 µM. In addition, in the assay on UACC-257 melanoma, the TGI was over 100 µM.

Regarding `COC(=O)c1c(C)n([O-])c2cc(Cl)c(Cl)cc2[n+]1=O`, the TGI with 786-0 renal is over 100 µM; in the assay on A498 renal, 40.2 µM; in the assay on HCC-2998 colon, 32.1 µM; in the assay with MDA-MB-231 breast, 67.2 µM; with MDA-MB-435, 62.8 µM; in the assay on OVCAR-8 ovarian, 59.3 µM. The total growth inhibition concentration (TGI) in the assay on SR leukemia is over 100 µM; in the assay with UACC-257 melanoma it was 54.9 µM.

Consider `c1ccc(-c2nc(N3CCNCC3)c3oc(-c4ccccc4)nc3n2)cc1`, for which the GI50 (as a rule, the concentration that inhibits growth by half) is 1.62 µM with A498 renal; 1.58 µM with HCC-2998 colon; 1.76 µM in the assay on MDA-MB-231 breast; 1.65 µM with MDA-MB-435; 0.259 µM with SR leukemia. In addition, the TGI with A498 renal was determined as 3.07 µM; in the assay with HCC-2998 colon, 3.05 µM; in the assay with MDA-MB-231 breast, 3.28 µM; in the assay with MDA-MB-435 it was 3.12 µM; in the assay on SR leukemia, 0.793 µM.

Regarding `Nc1[nH]c(=O)nc2c1cnn2C1CCCCO1` (stereo unspecified), the concentration for total growth inhibition (TGI) with A498 renal, in the assay with HCC-2998 colon, in the assay on KM20L2 colon, in the assay on LXFL 529 NSCLC, in the assay on OVCAR-8 ovarian and in the assay with SNB-78 CNS was over 100 µM in each case. Further, the TGI with SR leukemia and in the assay on UACC-257 melanoma was over 100 µM each time.

Turning to `CC(C)C(C(=O)O)N1C(=O)c2ccccc2C1=O` (stereo unspecified), the TGI in the assay on 786-0 renal, with A498 renal, with HCC-2998 colon, with MDA-MB-231 breast, in the assay with MDA-MB-435 and in the assay on OVCAR-8 ovarian was over 100 µM throughout. The same compound came in with a concentration for total growth inhibition (TGI) with UACC-257 melanoma of over 100 µM.

As to `Cc1cc(C)nc(NS(=O)(=O)c2ccc(NC(=O)c3cccc4c(Nc5ccc(S(=O)(=O)Nc6cc(C)on6)cc5)c5ccccc5nc34)cc2)n1`, the TGI is 68.5 µM with A498 renal; 39.8 µM in the assay on DMS 114 small cell lung; 29.4 µM in the assay on HCC-2998 colon; 35.5 µM in the assay on LXFL 529 NSCLC; 62.4 µM in the assay on M19-MEL melanoma; over 100 µM with SNB-78 CNS. The TGI in the assay on SR leukemia is 80.3 µM; with UACC-257 melanoma it was 47.2 µM.

`CCCC1CCC(=C2C(=O)CCC2=O)O1` (stereo unspecified): the concentration for total growth inhibition (TGI) in the assay on 786-0 renal, in the assay with HCC-2998 colon, in the assay on MDA-MB-231 breast, in the assay with MDA-MB-435, with OVCAR-8 ovarian and with SR leukemia was over 100 µM in each case. Further, the TGI in the assay with UACC-257 melanoma is over 100 µM.

For the compound `COc1cc(C(C)O)c[n+](Cc2ccccc2)c1` (stereo unspecified), the concentration for total growth inhibition (TGI) in the assay on 786-0 renal, in the assay on A498 renal, in the assay with DMS 114 small cell lung, with HCC-2998 colon, in the assay with KM20L2 colon and in the assay with LXFL 529 NSCLC was over 100 µM in each case. Moreover, the TGI was over 100 µM in the assay with M19-MEL melanoma; over 31.6 µM in the assay on OVCAR-8 ovarian; over 100 µM in the assay with SNB-78 CNS; over 100 µM in the assay on SR leukemia; over 100 µM with UACC-257 melanoma.

For `CC12C=CC(=O)C=C1CCC1C3CCC(O)(C(=O)CO)C3(C)CC(O)C12F` (stereo unspecified), the TGI with 786-0 renal, with A498 renal, in the assay on DMS 114 small cell lung, in the assay on HCC-2998 colon, in the assay with KM20L2 colon and in the assay with LXFL 529 NSCLC was over 100 µM in each case. The TGI in the assay with M19-MEL melanoma, in the assay on MDA-MB-231 breast, in the assay with MDA-MB-435, with OVCAR-8 ovarian, with SNB-78 CNS and in the assay with SR leukemia was over 100 µM each time. Besides, the TGI in the assay on UACC-257 melanoma was over 100 µM.

For the compound `CC(N)Cc1ccc(Cl)c(Cl)c1` (stereo unspecified), the TGI was over 100 µM in the assay with 786-0 renal; over 90.6 µM in the assay on A498 renal; 48.1 µM in the assay on DMS 114 small cell lung; 31.2 µM with HCC-2998 colon; 53.7 µM with KM20L2 colon; 34.9 µM in the assay on LXFL 529 NSCLC. Also, the TGI with M19-MEL melanoma is 47 µM; in the assay with OVCAR-8 ovarian, over 100 µM; with SNB-78 CNS, over 100 µM; in the assay on SR leukemia it was 48.1 µM; in the assay on UACC-257 melanoma it was 54.9 µM.

Regarding `O=C(/C=C/c1ccc(Oc2cc(C(=O)/C=C/c3ccc(O)cc3)c(O)cc2O)cc1)c1ccc(O)cc1O`, the total growth inhibition concentration (TGI) is 16 µM in the assay on 786-0 renal; 14.1 µM in the assay on A498 renal; over 100 µM in the assay with MDA-MB-231 breast; 17.6 µM in the assay on MDA-MB-435; 6.09 µM with OVCAR-8 ovarian; over 100 µM with SR leukemia. Besides, the total growth inhibition concentration (TGI) in the assay on UACC-257 melanoma was determined as 28.4 µM.

For the compound `CON(C)c1nc(N(C)OC)nc(N(C)OC)n1`, the TGI in the assay on A498 renal, with HCC-2998 colon, in the assay on MDA-MB-231 breast, in the assay with MDA-MB-435, in the assay on OVCAR-8 ovarian and in the assay on SR leukemia was over 10 µM throughout.

For `Cc1ccc(-c2nc(N/N=C/C=C/c3ccccc3)c3ccccc3n2)cc1`, the TGI in the assay on 786-0 renal was over 100 µM; with HCC-2998 colon, over 100 µM; with MDA-MB-231 breast, 47.9 µM; in the assay on MDA-MB-435, over 100 µM; with OVCAR-8 ovarian it was over 100 µM; in the assay with SR leukemia, over 100 µM. For the same compound, the TGI in the assay on UACC-257 melanoma is over 100 µM.

`C[N+](C)(C)c1ncnc2c1ncn2C1CC(O)C(CO)O1` (stereo unspecified): the TGI in the assay on 786-0 renal, in the assay on A498 renal, with HCC-2998 colon, with MDA-MB-231 breast, with MDA-MB-435 and in the assay with OVCAR-8 ovarian was over 100 µM throughout. Besides, the TGI with SR leukemia and in the assay with UACC-257 melanoma was over 100 µM throughout.

`Cn1c(-c2ccccc2)cc(-c2cccs2)c1-c1cccs1`: the TGI with A498 renal, with DMS 114 small cell lung, with HCC-2998 colon, with KM20L2 colon, in the assay on M19-MEL melanoma and with OVCAR-8 ovarian was over 100 µM each time. For the same compound, the TGI with SNB-78 CNS was over 100 µM; in the assay on UACC-257 melanoma, over 51 µM.

On to `OCCN(CCO)c1ncnc2nc[nH]c12`, for which the TGI in the assay with 786-0 renal, in the assay with A498 renal, with HCC-2998 colon, in the assay with MDA-MB-231 breast, in the assay on MDA-MB-435 and in the assay with OVCAR-8 ovarian was over 100 µM each time. The compound also yielded a concentration for total growth inhibition (TGI) in the assay with UACC-257 melanoma of over 100 µM.

As for `COC(=O)/C=C(\CC(=O)OC)n1nnnc1[C@@H]1C[C@H](COC(c2ccccc2)(c2ccccc2)c2ccccc2)[C@H]2OC(C)(C)O[C@H]21`, the total growth inhibition concentration (TGI) in the assay with 786-0 renal, in the assay with A498 renal, with MDA-MB-231 breast, in the assay on MDA-MB-435, with OVCAR-8 ovarian and in the assay on SR leukemia was over 100 µM each time. In addition, the TGI in the assay on UACC-257 melanoma was over 100 µM.

Consider `CN1C(c2ccccc2)CC(=O)C(N)C1c1ccccc1` (stereo unspecified), for which the TGI is 97.7 µM with 786-0 renal; over 100 µM in the assay on A498 renal; 43.3 µM in the assay with HCC-2998 colon; over 90.6 µM in the assay with KM20L2 colon; 37.5 µM with LXFL 529 NSCLC; 55.5 µM with M19-MEL melanoma. In addition, the TGI is over 81.2 µM in the assay with OVCAR-8 ovarian, 69.7 µM with SNB-78 CNS, over 60.2 µM in the assay with SR leukemia and over 87.1 µM in the assay on UACC-257 melanoma.

For the compound `C/C(=N/N=C(\[O-])c1ccncc1)C(F)(F)F.C/C(=N\N=C(/[O-])c1ccncc1)C(F)(F)F.[Ni+2]`, the GI50 with A498 renal, with HCC-2998 colon and in the assay on UACC-257 melanoma was over 1 µM in each case. Besides, the TGI in the assay on A498 renal, with HCC-2998 colon and with UACC-257 melanoma was over 1 µM throughout.

Turning to `CCCCCCCCCCCCCCCC(=O)N1CCCC1C(=O)NCC(=O)NC(Cc1ccccc1)C(=O)NC(C)C(=O)NC(CO)C(=O)NC(Cc1ccc(O)cc1)C(=O)NC(CCCCN)C(=O)NC(CC(C)C)C(=O)NC(CCCN=C(N)N)C(=O)N1CCCC1C(=O)NCC(N)=O` (stereo unspecified) (Palmitoyl-PGFASYKLRPG-NH2; configuration not given here), the GI50 in the assay on A498 renal is 37.4 µM; in the assay on HCC-2998 colon it was 13.4 µM; with MDA-MB-231 breast, 12.5 µM; with MDA-MB-435, 14 µM; in the assay with OVCAR-8 ovarian it was 24 µM; in the assay on SR leukemia, 12 µM. The GI50 in the assay on UACC-257 melanoma was 26.4 µM. Moreover, the TGI in the assay on A498 renal is over 100 µM; with HCC-2998 colon, 28.9 µM; with MDA-MB-231 breast, 26.5 µM; with MDA-MB-435 it was 54.5 µM; with OVCAR-8 ovarian it was 51.9 µM; in the assay on SR leukemia it was 24.5 µM. This compound also gave a concentration for total growth inhibition (TGI) in the assay on UACC-257 melanoma of 52.7 µM.
